Data set [1] has as its system Rattus norvegicus. The data set is described as follows: Antihyperalgesia activity in Sprague-Dawley rat endometriosis model assessed as viscero-motor response at 75 mg/kg, po bid administered for 3 to 5 weeks of post surgery by EMG method. In kind it is functional, organism-based.
Data set [2] is described as follows: Apparent permeability across apical to basolateral side in human Caco2 cells measured at 2 uM incubated for 2 hrs by LC/MS/MS analysis. In kind it is ADME, cell-based. The settings on record: Caco-2. Background: Passage across Caco-2 layers is used to estimate intestinal permeability.
The target of data set [3] is T1, Prostaglandin E synthase (Mus musculus, UniProt Q9JM51).
T1 sequence (Q9JM51 whole entry): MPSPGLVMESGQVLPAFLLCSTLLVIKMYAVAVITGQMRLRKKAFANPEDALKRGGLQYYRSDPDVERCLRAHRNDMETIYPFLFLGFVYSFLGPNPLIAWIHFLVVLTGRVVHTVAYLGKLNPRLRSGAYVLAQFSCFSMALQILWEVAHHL
The data set is described as follows: Inhibition of mouse recombinant FLAG-tagged PTGES expressed in baculovirus infected Hi-5 insect cells using prostaglandin H2 as substrate incubated for 20 mins followed by substrate addition and incubated for 60 sec by TR-FRET assay. Background: TR-FRET usually uses a lanthanide donor and a delayed reading to cut background.

A short description of data set [4]: Total blood clearance in Wistar rat blood at 0.5 to 1 mg/kg, […] 0.5 to 10 mg/kg, ig measured upto 24 hrs by LC-MS/MS. In kind it is ADME, organism-based. Particulars: whole blood.
The nature of data set [5]: Inhibition of rat recombinant FLAG-tagged PTGES expressed in baculovirus infected Hi-5 insect cells using prostaglandin H2 as substrate incubated for 20 mins followed by substrate addition and incubated for 60 sec by TR-FRET assay.
Data set [6] is described as follows: Ratio of unbound drug level in CFA-induced mouse to IC50 for mouse recombinant FLAG-tagged PTGES inhibition. In kind it is ADME. The settings on record: in vivo.
The subject of data set [7] is Mus musculus. The data set is described as follows: Antinociceptive activity in C57BL/6 mouse model of complete Freund's adjuvant-induced inflammatory pain assessed as inhibition of PGE2 production at 30 to 100 mg/kg, po administered after 2 days of CFA induction and measured after 1 hr by ELISA. In kind it is functional, organism-based. (ELISA stands for enzyme-linked immunosorbent assay.)

For data set [8], the system named is Mus musculus. The data set is described as follows: Antinociceptive activity in C57BL/6 mouse model of complete Freund's adjuvant-induced inflammatory pain assessed as reduction in pain-related behavior at 30 to 100 mg/kg, po administered after 2 days of CFA induction and measured after 1 hr by using Plexiglas chamber. In kind it is functional, organism-based.

A short description of data set [9]: Hepatic extraction ratio in Han Wistar rat liver microsomes at 1 uM measured upto 90 mins by LC-MS/MS. In kind it is ADME, Microsome. The settings on record: read-out: ERH.
The nature of data set [10]: Half life in Wistar rat blood at 0.5 to 1 mg/kg, […] 0.5 to 10 mg/kg, ig LC-MS/MS. In kind it is ADME, organism-based. Particulars: whole blood.
A short description of data set [11]: Oral bioavailability in Wistar rat at 0.5 to 1 mg/kg measured upto 24 hrs by LC-MS/MS. In kind it is ADME, organism-based. Particulars: in vivo.
A short description of data set [12]: Efflux ratio of apparent permeability from basolateral to apical over apical to basolateral side in human Caco2 cells at 2 uM incubated for 2 hrs by LC/MS/MS analysis. In kind it is ADME, cell-based. The settings on record: Caco-2.
In data set [13] the test system is Rattus norvegicus. The data set is described as follows: Antihyperalgesia activity in Sprague-Dawley rat endometriosis model assessed as viscero-motor response at 75 mg/kg, po bid administered for 3 to 5 weeks of post surgery and measured after 1 week by EMG method. In kind it is functional, organism-based.
The nature of data set [14]: Volume of distribution at steady state in Wistar rat blood at 0.5 to 1 mg/kg, […] 0.5 to 10 mg/kg, ig measured upto 24 hrs by LC-MS/MS. In kind it is ADME, organism-based. The settings on record: in vivo.
The test system of data set [15] is Rattus norvegicus. The data set is described as follows: Antihyperalgesia activity in Sprague-Dawley rat endometriosis model assessed as decrease in proliferation of lesions by measuring expression of Ki67 at 75 mg/kg, po bid administered for 3 to 5 weeks of post surgery by RT-PCR analysis. In kind it is functional, organism-based.
The target of data set [16] is T2, Prostaglandin E synthase (Homo sapiens, UniProt O14684).
T2 sequence (O14684 whole entry): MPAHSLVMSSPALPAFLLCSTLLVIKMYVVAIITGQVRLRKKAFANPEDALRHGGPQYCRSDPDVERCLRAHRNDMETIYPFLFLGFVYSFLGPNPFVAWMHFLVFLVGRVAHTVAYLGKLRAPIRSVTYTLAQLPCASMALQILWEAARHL
The data set is described as follows: Inhibition of human recombinant FLAG-tagged PTGES expressed in baculovirus infected Hi-5 insect cells using prostaglandin H2 as substrate preincubated for 20 mins followed by substrate addition and incubated for 60 sec by TR-FRET assay.

Data set [17] can be described thus: Selectivity ratio of IC50 for mouse recombinant FLAG-tagged PTGES to human recombinant FLAG-tagged PTGES expressed in baculovirus infected Hi-5 insect cells using prostaglandin H2 as substrate preincubated for 20 mins followed by substrate addition and incubated for 60 sec by TR-FRET assay.
Data set [18] relates to Mus musculus. The data set is described as follows: Antinociceptive activity in C57BL/6 mouse model of complete Freund's adjuvant-induced inflammatory pain assessed as inhibition of PGE2 production at 100 mg/kg, po administered after 2 days of CFA induction and measured after 1 hr by ELISA. In kind it is functional, organism-based.

The record followed here is ChEMBL document CHEMBL4346755, “Discovery and optimization of pyridyl-cycloalkyl-carboxylic acids as inhibitors of microsomal prostaglandin E synthase-1 for the treatment of endometriosis” (Bioorg Med Chem Lett, 2019).

The Papp A→B is how fast a substance crosses the layer from the apical side. Usually IC50 stands for the point on the concentration scale where inhibition reaches its midpoint. As a reminder, the CL/F is the apparent clearance, not corrected for the fraction that reaches the circulation. As a reminder, the half-life is how long it takes for the measured level to halve. A lower half-life goes with fast loss. By bioavailability is commonly meant dose-corrected exposure relative to a reference, in per cent. A low value points to poor availability. The efflux ratio is the permeability from basolateral to apical divided by that in the opposite direction, in the common usage.

Calls of active or inactive are those of the source. No cut-off for these calls is given here.

For the compound `Cc1c(CCC(=O)O)cccc1NC(=O)[C@@H](c1ccc(-c2cncc(Cl)c2)cc1)C1CCCC1`, the result in the data set on Rattus norvegicus [1], in the data set with Mus musculus [7], in the data set with Mus musculus [8], in the data set with Rattus norvegicus [13] and in the data set with Rattus norvegicus [15] was Active. Further, the Papp A→B at 2 h, 2 µM in data set [2] was 6.9 ×10⁻⁶ cm/s. The values for the IC50 (at Prostaglandin E synthase [3]; in [5]) were 765 nM and 1270 nM, respectively. For the same compound, the CL/F in data set [4] is 5 mL/min/kg. For the same compound, the Ratio in [6] came to 3. For the same compound, the hepatic extraction ratio at […], 1 µM in data set [9] stood at 0.02. The half-life in data set [10] is 4.3 h. Moreover, the bioavailability in data set [11] turned out to be 98%. In addition, the efflux ratio at 2 h, 2 µM in [12] worked out at 2.9. For the same compound, the Vdss in data set [14] was determined as 0.9 L/kg.
Consider `Cc1c(CCC(=O)O)cccc1NC(=O)C(c1cccc(-c2cccnc2)c1)C1CCCC1` (stereo not given), for which the half-maximal inhibitory concentration (IC50) at Prostaglandin E synthase [16] was > 20000 nM.
On to `Cc1ccc(-c2ccc(C(C(=O)Nc3cccc(CCC(=O)O)c3C)C3CCCC3)cc2)cn1` (stereo not given), for which, in data set [17], the Ratio IC50 turned out to be 5.
Take `CC(C)Cc1ccc(C(C)C(=O)O)cc1` (stereo not given): the result in the data set on Mus musculus [18] was Active.
Turning to `Cc1c(CCC(=O)O)cccc1NC(=O)C(c1ccc(-c2ccncc2)cc1)C1CCCC1` (stereo not given), the half-maximal inhibitory concentration (IC50) on Prostaglandin E synthase [16] was determined as 9260 nM.
Regarding `Cc1c(CCC(=O)O)cccc1NC(=O)C(c1ccc(-c2cncc(CC(C)C)c2)cc1)C1CCCC1` (stereo not given), the half-inhibitory concentration (IC50) at Prostaglandin E synthase [3] was determined as 191 nM.
For `Cc1c(CCC(=O)O)cccc1NC(=O)C(c1ccc(-c2cncc(Cl)c2)nc1)C1CCCC1` (stereo not given), the IC50 at Prostaglandin E synthase [16] worked out at 327 nM.
Regarding `Cc1c(NC(=O)[C@H](c2ccc(-c3cncc(Cl)c3)cc2)C2CCCC2)cccc1[C@@H](C)CC(=O)O`, the figures for the IC50 (at Prostaglandin E synthase [3]; in data set [5]) were 12600 nM and 17700 nM, respectively.
In the case of `Cc1c(NC(=O)[C@@H](c2ccc(-c3cncc(Cl)c3)cc2)C2CCCC2)cccc1OCC(=O)O`, in [2], the Papp A→B at 2 h, 2 µM amounted to 0.22 ×10⁻⁶ cm/s. In data set [11], this compound gave a bioavailability of 8%.
Consider `O=C(O)CCc1cccc(NC(=O)C(c2ccc(-c3cncc(Cl)c3)cc2)C2CCCC2)c1OC(F)(F)F` (stereo not given), for which the IC50 at Prostaglandin E synthase [16] is > 20000 nM.
Turning to `Cc1c(NC(=O)[C@@H](c2ccc(-c3cncc(Cl)c3)cc2)C2CCCC2)cccc1[C@H](C)CC(=O)O`, the figures for the IC50 (on Prostaglandin E synthase [3]; in data set [5]) were 339 nM and 895 nM, respectively.
The matching figures for `CC[C@@H](CC(=O)O)c1cccc(NC(=O)C(c2ccc(-c3cncc(CC(C)C)c3)cc2)C2CCCC2)c1C` (stereo not given in full): 84 nM and 162 nM.
Take `CCc1cncc(-c2ccc(C(C(=O)Nc3cccc([C@@H](CC)CC(=O)O)c3C)C3CCCC3)cc2)c1` (stereo not given in full): the IC50 at Prostaglandin E synthase [3] came out at 203 nM; in [5] it was 190 nM. For the same compound, in [9], the hepatic extraction ratio at […], 1 µM amounted to 0.44.
For the compound `Cc1c(CCC(=O)O)cccc1NC(=O)C(c1cccc(-c2ccccc2)c1)C1CCCC1` (stereo not given), the concentration for half-maximal inhibition (IC50) on Prostaglandin E synthase [16] is 5860 nM.
Take `Cc1ncccc1-c1ccc(C(C(=O)Nc2cccc(CCC(=O)O)c2C)C2CCCC2)cc1` (stereo not given): on Prostaglandin E synthase [16], the half-maximal inhibitory concentration (IC50) was > 20000 nM.
As for `Cc1c(CCC(=O)O)cccc1NC(=O)C(c1ccccc1)c1ccc(-c2cncc(Cl)c2)cc1` (stereo not given), the half-inhibitory concentration (IC50) at Prostaglandin E synthase [16] was found to be 4490 nM.
In the case of `Cc1c(CCC(=O)O)cccc1NC(=O)C(c1ccc(-c2cncc(Cl)c2)cn1)C1CCCC1` (stereo not given), the 50% inhibitory concentration (IC50) on Prostaglandin E synthase [16] is 2330 nM.
As to `Cc1c(CCC(=O)O)cccc1NC(=O)[C@@H](c1ccc(-c2cncc(C(F)(F)F)c2)cc1)C1CCCC1`, in data set [2], the apical-to-basolateral permeability (Papp A→B) at 2 h, 2 µM is 8 ×10⁻⁶ cm/s. Also, the bioavailability in data set [11] was found to be 73%.
Consider `Cc1c(CCC(=O)O)cccc1NC(=O)C(c1ccc(-c2cccc(Cl)c2)cc1)C1CCCC1` (stereo not given), for which the IC50 at Prostaglandin E synthase [16] is 276 nM.
For the compound `Cc1c(NC(=O)[C@H](c2ccc(-c3cncc(Cl)c3)cc2)C2CCCC2)cccc1[C@H](C)CC(=O)O`, the values for the half-inhibitory concentration (IC50) (at Prostaglandin E synthase [3]; in [5]) were 3080 nM and 8460 nM, respectively.
Regarding `Cc1c(CCC(=O)O)cccc1C(=O)NC(c1ccc(-c2cncc(Cl)c2)cc1)C1CCCC1` (stereo not given), the half-maximal inhibitory concentration (IC50) on Prostaglandin E synthase [16] is > 20000 nM.
As to `Cc1c(CCC(=O)O)cccc1NC(=O)[C@@H](c1ccc(-c2cccnc2)cc1)C1CCCC1`, the Papp A→B at 2 h, 2 µM in data set [2] came out at 3.6 ×10⁻⁶ cm/s.
For `Cc1c(CCC(=O)O)cccc1NC(=O)[C@@H](c1ccc(-c2cncc(Cl)c2)c(F)c1)C1CCCC1`, the apparent permeability from apical to basolateral (Papp A→B) at 2 h, 2 µM in data set [2] is 5.9 ×10⁻⁶ cm/s. Moreover, in data set [11], the bioavailability is 72%.
For the compound `Cc1c(NC(=O)[C@@H](c2ccc(-c3cncc(Cl)c3)cc2)C2CCCC2)cccc1[C@@H](C)CC(=O)O`, the figures for the 50% inhibitory concentration (IC50) (on Prostaglandin E synthase [3]; in [5]) were 584 nM and 1360 nM, respectively.
`Cc1c(CCc2nnn[nH]2)cccc1NC(=O)C(c1ccc(-c2cncc(Cl)c2)cc1)C1CCCC1` (stereo not given): the half-maximal inhibitory concentration (IC50) on Prostaglandin E synthase [16] amounted to 152 nM.
On to `Cc1c(CCC(=O)O)cccc1NC(=O)C(c1ccc(-c2ccccn2)cc1)C1CCCC1` (stereo not given), for which the IC50 on Prostaglandin E synthase [16] is > 20000 nM.
`Cc1c(CCC(=O)O)cccc1NC(=O)C(c1ccc(-c2cncc(Cl)c2)cc1)C1CCN(C)C1=O` (stereo not given): the concentration for half-maximal inhibition (IC50) on Prostaglandin E synthase [16] was > 20000 nM.
As to `O=C(O)CCc1ccc(NC(=O)C(c2ccc(-c3cncc(Cl)c3)cc2)C2CCCC2)cc1` (stereo not given), the concentration for half-maximal inhibition (IC50) on Prostaglandin E synthase [16] was > 20000 nM.
`Cc1cncc(-c2ccc(C(C(=O)Nc3cccc(CCC(=O)O)c3C)C3CCCC3)cc2)c1` (stereo not given): the values for the IC50 (on Prostaglandin E synthase [3]; in data set [5]) were 818 nM and 2590 nM, respectively.
With `Cc1c(CCC(=O)O)cccc1N(C)C(=O)C(c1ccc(-c2cncc(Cl)c2)cc1)C1CCCC1` (stereo not given), the 50% inhibitory concentration (IC50) on Prostaglandin E synthase [16] is > 20000 nM.
